This assay deals with myrosinase (bglA, 6-phospho-β-glucosidase, GH1). Briefly: initial rates, Lineweaver-Burk plot. In kind it is biochemical, Bacillus sp. NGB-B10. Conditions: 0.05 M phosphate buffer pH 7.0; 1-20 mM sinigrin; partially purified enzyme.

The structures appear in SMILES notation.

Regarding `C=CC/C(=N/OS(=O)(=O)O)S[C@@H]1O[C@H](CO)[C@@H](O)[C@H](O)[C@H]1O` [sinigrin], the Km was found to be 2500 µM.

As usually defined, the Km is the substrate concentration at which the rate is half of its maximum.

The values above are taken from article PMC9440883, “A new source of bacterial myrosinase isolated from endophytic Bacillus sp. NGB-B10, and its relevance in biological control activity” (World Journal of Microbiology & Biotechnology, 2022).
